The nature of data set [1]: Cytotoxicity against human A431 cells by MTT assay. It is filed as cell-based, A-431. Conditions: read-out: ED50 (the source's name).
For data set [2], the system named is Plasmodium falciparum. Put plainly: Antiplasmodial activity after 72 hrs against chloroquine-sensitive Plasmodium falciparum FCA10/GHA at 500 uM by LDH activity. The format is functional, organism-based.
Data set [3] deals with Plasmodium falciparum. Put plainly: Antiplasmodial activity after 72 hrs against chloroquine-sensitive Plasmodium falciparum FCA10/GHA as LDH activity. It is filed as functional, organism-based.
A short description of data set [4]: Selectivity index, ratio of ED50 for human A431 cells to IC50 for chloroquine-sensitive Plasmodium falciparum FCA10/GHA. The format is functional, A-431.

pIC50: −log10 of the molar value. The source made the active and inactive calls. The calls are words filed in the database; no cut-off is given here.

For `O=c1[nH]cc(F)c(=O)[nH]1` [FLUOROURACIL], the CC50 in data set [1] is 44 µM.
As for `CC(=O)O[C@@]1(C)C[C@@H](O)[C@]2(O)C=CO[C@@H](O[C@@H]3O[C@H](CO)[C@@H](O)[C@H](O)[C@H]3O)[C@@H]21`, in the data set on Plasmodium falciparum [2], the result was inactive. Besides, in data set [1], the CC50 was found to be 310 µM.
For `CC(=O)OC[C@@]12[C@@H](OC(C)=O)C[C@@H](C)[C@](C)(CCC3=CC(=O)OC3)[C@H]1CCC[C@]21CO1` [AJUGARIN I], the negative logarithm of the IC50 (pIC50) in the data set with Plasmodium falciparum [3] is 4.64. In addition, the CC50 in data set [1] is more than 88 µM. The Ratio in data set [4] is more than 4.
On to `CC(C)C/C=C/C[C@H]1CC[C@@H]2[C@]1(C)CCC1[C@]23C=C[C@]2(C[C@@H](O)CC[C@]12C)OO3` (some centres undefined), for which the pIC50 with Plasmodium falciparum [3] was 5.09. The CC50 in data set [1] is more than 23 µM. For the same molecule, the Ratio in data set [4] was more than 3.

In general, pIC50 refers to the IC50 on a negative log10 scale, so that one unit is a factor of ten. The low end stands for a high IC50, the high end for a low IC50.

Source of the values: ChEMBL document CHEMBL1156407, “The antiplasmodial activity of isolates from Ajuga remota” (J Nat Prod, 2002).
